pIC50: −log10 of the molar value. Where a name gives a salt, the structure may show the parent alone.
target: human D3 dopamine receptors (Homo sapiens, UniProt P35462); assay: [125I] iodosulpride displacement binding to cloned dopamine receptors expressed in CHO cells; conditions: displacement of 0.1 nM [125I] iodosulpride, cloned receptor in CHO cell membranes, 30 min at 37° C.
Method: The inhibition constants (Ki) of test compounds for displacement of [^125 I] iodosulpride binding to human D2 and D3 dopamine receptors expressed in CHO cells have been determined. […] Cultures were grown as monolayers or in suspension in standard cell culture media. Cells were recovered by scraping (from monolayers) or by centrifugation (from suspension cultures), and were washed two or three times by suspension in phosphate buffered saline followed by collection by centrifugation. Cell pellets were stored frozen at -40° C. Crude cell membranes were prepared by homogenisation followed by high-speed centrifugation, and characterisation of cloned receptors achieved by radioligand binding.
Cell pellets were gently thawed at room temperature, and resuspended in about 20 volumes of ice-cold 50 mM Tris salts (pH 7.4 @37° C.), 20 mM EDTA, 0.2M sucrose. The suspension was homogenised using an Ultra-Turrax at full speed for 15 sec. The homogenate was centrifuged at 18,000 r.p.m for 20 min at 4° C. in a Sorvall RC5C centrifuge. The membrane pellet was resuspended in ice-cold 50 mM Tris salts (pH 7.4 @37° C.), using an Ultra-Turrax, and recentrifuged at 18,000 r.p.m for 15 min at 4° C. in a Sorvall RC5C. The membranes were washed two more times with ice-cold 50 mM Tris salts (pH 7.4 @37° C.). The final pellet was resuspended in 50 mM Tris salts (pH 7.4 @37° C.), and the protein content determined using bovine serum albumin as a standard (Bradford, M. M. (1976) Anal. Biochem. 72, 248-254).
Crude cell membranes were incubated with 0.1 nM [^125 I] iodosulpride (~2000 Ci/mmol; Amersham, U.K.), and the test compound in a buffer containing 50 mM Tris salts (pH 7.4 @37° C.), 120 mM NaCl, 5 mM KCl, 2 mM CaCl2, 1 mM MgCl2, 0.1% (w/v) bovine serum albumin, in a total volume of 1 ml for 30 min at 37° C. Following incubation, samples were filtered using a Brandel Cell Harvester, and washed three times with ice-cold 50 mM Tris salts (pH 7.4 @37° C.), 120 mM NaCl5 mM KCl2 mM CaCl2, 1 mM MgCl2. The radioactivity on the filters was measured using a Cobra gamma counter (Canberra Packard). Non-specific binding was defined as the radioligand binding remaining after incubation in the presence of 100 μM iodosulpride. For competition curves, 14 concentrations (half-log dilutions) of competing cold drug were used.
Competition curves were analysed simultaneously whenever possible using non-linear least-squares fitting procedures, capable of fitting one, two or three site models.

human D3 dopamine receptors, sequence (P35462 whole entry): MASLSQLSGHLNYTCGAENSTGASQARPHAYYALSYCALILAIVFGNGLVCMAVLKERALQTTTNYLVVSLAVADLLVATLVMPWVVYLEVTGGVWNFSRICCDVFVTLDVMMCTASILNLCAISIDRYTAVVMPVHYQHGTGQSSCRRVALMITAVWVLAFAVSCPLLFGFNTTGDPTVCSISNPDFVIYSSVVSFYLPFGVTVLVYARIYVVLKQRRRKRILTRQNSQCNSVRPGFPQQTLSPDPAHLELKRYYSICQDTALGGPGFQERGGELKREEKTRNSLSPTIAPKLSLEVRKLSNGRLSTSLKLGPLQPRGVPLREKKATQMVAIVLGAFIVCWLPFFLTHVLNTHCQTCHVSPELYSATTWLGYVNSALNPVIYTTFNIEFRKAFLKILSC

Row | pIC50 | SMILES
1 | 7.59 to 9.70 | COc1cc(Br)cc(-c2ccc(C(C)N3CCCCC3)[nH]2)c1OC (stereo not shown) [Example 36, 2-(2,3-Dimethoxy-5-bromophenyl)-5-[1-(1-piperidinyl)ethyl]-1H-pyrrole hydrochloride]
2 | 7.59 to 9.70 | CCN(Cc1ccccc1)Cc1ccc(-c2cc(S(=O)(=O)CC)cc(Br)c2OC)[nH]1 [Example 30, 2-(3-Bromo-5-ethylsulphonyl-2-methoxyphenyl)-5-(N-benzyl-N-ethyl)aminomethyl-1H-pyrrole hydrochloride]
3 | 7.59 to 9.70 | CCS(=O)(=O)c1ccc(OC)c(-c2ccc(C(C)N3CCCCC3)[nH]2)c1 (single isomer, unassigned; slower eluting) [Example 49, 2-(5-Ethylsulphonyl-2-methoxyphenyl)-5-[1-(1-piperidinyl)-ethyl)-1H-pyrrole, slower eluting enantiomer]
4 | 7.59 to 9.70 | CCS(=O)(=O)c1ccc(OC)c(-c2ccc(CN3CCCCC3)[nH]2)c1 [Example 2, 2-(5-Ethylsulphonyl-2-methoxyphenyl)-5-(1-piperidinylmethyl)-1H-pyrrole]
5 | 7.59 to 9.70 | CCS(=O)(=O)c1ccc(OC)c(-c2ccc(C(C)N3CCCCC3)[nH]2)c1 (stereo not shown) [Example 16, 2-(5-Ethylsulphonyl-2-methoxyphenyl)-5-[1-(1-piperidinyl)-ethyl)-1H-pyrrolehydrochloride]
6 | 7.59 to 9.70 | COc1c(Br)cc(Br)cc1-c1ccc(CN2CCCCC2)[nH]1 [Example 1, 2-(3,5-Dibromo-2-methoxyphenyl)-5-(1-piperidinylmethyl)-1H-pyrrole hydrochloride]
7 | 7.59 to 9.70 | CCN(Cc1ccccc1)Cc1ccc(-c2cc(S(=O)(=O)CC)ccc2OC)[nH]1 [Example 27, 2-(5-Ethylsulphonyl-2-methoxyphenyl)-5-(N-benzyl-N-ethyl)-aminomethyl-1H-pyrrole hydrochloride]

From US5523299A, “5-(2-oxyphenyl)-pyrrole derivatives as dopamine D3 receptor antagonists” (SmithKline Beecham PLC, priority 1992, dated 1996)
